From patent US9834542B2, “LXR modulators” (BRISTOL-MYERS SQUIBB COMPANY, priority 2013, dated 2017)

Molecular target: T1, LXRβ (Homo sapiens, UniProt P55055)
T1 construct: Co-transfection expression plasmids, comprising full-length LXRα (pCMX-h LXRα[…] or LXRβ (pCMX-hLXRβ)); expressed in transfected cells; host or cells: CV-1 African Green Monkey Kidney Cells
T1 sequence (P55055 1-460): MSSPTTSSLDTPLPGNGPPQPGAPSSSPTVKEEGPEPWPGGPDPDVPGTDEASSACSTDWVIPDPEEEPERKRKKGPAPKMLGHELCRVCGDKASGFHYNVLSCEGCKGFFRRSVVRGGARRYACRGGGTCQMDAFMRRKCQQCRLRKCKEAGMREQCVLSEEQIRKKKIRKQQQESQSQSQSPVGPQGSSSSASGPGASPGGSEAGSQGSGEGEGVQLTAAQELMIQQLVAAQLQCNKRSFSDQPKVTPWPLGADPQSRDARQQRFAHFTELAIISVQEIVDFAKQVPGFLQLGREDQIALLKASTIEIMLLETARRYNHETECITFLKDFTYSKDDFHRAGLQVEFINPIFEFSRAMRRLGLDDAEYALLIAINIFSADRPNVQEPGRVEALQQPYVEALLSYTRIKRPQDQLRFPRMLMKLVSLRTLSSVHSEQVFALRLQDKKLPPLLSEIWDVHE
T1 sequence (P19793 1-462 partner): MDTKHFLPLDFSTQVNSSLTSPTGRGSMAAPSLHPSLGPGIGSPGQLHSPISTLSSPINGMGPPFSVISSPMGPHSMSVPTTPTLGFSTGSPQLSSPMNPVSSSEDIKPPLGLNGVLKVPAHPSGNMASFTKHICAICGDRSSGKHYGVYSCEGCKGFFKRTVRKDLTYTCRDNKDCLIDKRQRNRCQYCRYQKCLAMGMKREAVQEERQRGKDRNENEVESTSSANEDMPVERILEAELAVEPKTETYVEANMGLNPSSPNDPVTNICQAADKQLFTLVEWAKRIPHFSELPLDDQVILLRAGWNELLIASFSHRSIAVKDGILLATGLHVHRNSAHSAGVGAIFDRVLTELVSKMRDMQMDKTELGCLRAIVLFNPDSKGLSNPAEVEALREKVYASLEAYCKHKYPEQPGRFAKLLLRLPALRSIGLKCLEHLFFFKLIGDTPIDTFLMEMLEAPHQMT
Assay: Co-transfection assay (LXRE luciferase reporter), LXRβ
Type: cell-based
Conditions: for EC50: CV-1 cells transfected with pCMX-hLXRβ and LXREx1-Tk-Luciferase, 20 hours incubation; for Emax: LXRβ co-transfection, relative to high control 1-(2,4-difluorobenzyl)-2-oxo-6-(4-phenoxyphenyl)-4-(trifluoromethyl)-1,2-dihydropyridine-3-carbonitrile, read-out: % Efficacy
In short: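 Luciferase output from an LXRE-Tk reporter measured after 20 h, 37 °C compound exposure of transiently transfected CV-1 cells expressing human LXRβ with endogenous RXR. EC50 fitted from 11-point half-log dose responses (mean of ≥2 runs); % efficacy versus maximal response of the reference agonist.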

EC50 [nM] | Emax [%] | Compound
1620 | 38 | Cc1nc(-c2cc(-c3cc(F)c(CO)c(S(C)(=O)=O)c3)ccc2-n2cc(C(F)(F)F)nc2C)c(-c2ccc(N3CCCC3=O)cc2)o1 [Example 501]
57 | 62 | Cc1nc(-c2cc(-c3cccc(S(C)(=O)=O)c3)ccc2-n2cc(C(F)(F)F)nc2C)c(-c2ccc(OC(F)F)c(OCC3CC3)c2)o1 [Example 382, 5-(3-(cyclopropylmethoxy)-4-(difluoromethoxy)phenyl)-2-methyl-4-(4-(2-methyl-4-(trifluoromethyl)-1H-imidazol-1-yl)-3′-(methylsulfonyl)biphenyl-3-yl)oxazole]
1240 | 52 | Cc1nc(C(F)(F)F)cn1-c1ccc(-c2cc(F)c(CO)c(S(C)(=O)=O)c2)c(Cl)c1-n1nncc1-c1ccc(Cl)cc1Cl [Example 103, {2′-chloro-3′-[5-(2,4-dichlorophenyl)-1H-1,2,3-triazol-1-yl]-3-fluoro-5-(methylsulfonyl)-4′-[2-methyl-4-(trifluoromethyl)-1H-imidazol-1-yl]biphenyl-4-yl}methanol]
47 | 90 | Cc1nc(-c2cc(-c3cc(F)c(CO)c(S(C)(=O)=O)c3)ccc2-n2cc(C(F)(F)F)nc2C)c(-c2ccc3c(c2)OC(F)(F)O3)o1 [Example 494, (3′-(5-(2,2-difluorobenzo[d][1,3]dioxol-5-yl)-2-methyloxazol-4-yl)-3-fluoro-4′-(2-methyl-4-(trifluoromethyl)-1H-imidazol-1-yl)-5-(methylsulfonyl)biphenyl-4-yl)methanol]
214 | 75 | COc1ncc(-c2oc(C)nc2-c2cc(-c3cc(F)c(CO)c(S(C)(=O)=O)c3)ccc2-n2cc(C(F)(F)F)nc2C)cc1F [Example 440, (3-fluoro-3′-(5-(5-fluoro-6-methoxypyridin-3-yl)-2-methyloxazol-4-yl)-4′-(2-methyl-4-(trifluoromethyl)-1H-imidazol-1-yl)-5-(methylsulfonyl)biphenyl-4-yl)methanol]
252 | 76 | Cc1nc(C(F)(F)F)cn1-c1c(F)cc(-c2cc(Cl)c(CO)c(S(C)(=O)=O)c2)cc1-n1nncc1-c1ccc(OC(F)(F)F)cc1 [Example 197, [3-chloro-3′-fluoro-5-(methylsulfonyl)-4′-[2-methyl-4-(trifluoromethyl)-1H-imidazol-1-yl]-5′-(5-{4-[(trifluoromethyl)oxy]phenyl}-1H-1,2,3-triazol-1-yl)biphenyl-4-yl]methanol]
63 | 74 | Cc1nc(C(F)(F)F)cn1-c1ccc(-c2cccc(S(C)(=O)=O)c2)cc1-c1nc(C(C)C)oc1-c1ccc2c(c1)OC(F)(F)O2 [Example 480, 5-(2,2-difluorobenzo[d][1,3]dioxol-5-yl)-2-isopropyl-4-(4-(2-methyl-4-(trifluoromethyl)-1H-imidazol-1-yl)-3′-(methylsulfonyl)biphenyl-3-yl)oxazole]
102 | 94 | Cc1nc(C(F)(F)F)cn1-c1ccc(-c2cc(F)c(CO)c(S(C)(=O)=O)c2)cc1-n1nncc1-c1ccc(OC(F)(F)F)c(Cl)c1 [Example 78, {3′-(5-{3-chloro-4-[(trifluoromethyl)oxy]phenyl}-1H-1,2,3-triazol-1-yl)-3-fluoro-5-(methylsulfonyl)-4′-[2-methyl-4-(trifluoromethyl)-1H-imidazol-1-yl]biphenyl-4-yl}methanol]
76 | 54 | Cc1nc(C(N)=O)cn1-c1ccc(-c2cc(F)c(CO)c(S(C)(=O)=O)c2)cc1-c1nc(C2CC2)oc1-c1ccc2c(c1)OC(F)(F)O2 [Example 490, 1-(3-(2-cyclopropyl-5-(2,2-difluorobenzo[d][1,3]dioxol-5-yl)oxazol-4-yl)-3′-fluoro-4′-(hydroxymethyl)-5′-(methylsulfonyl)biphenyl-4-yl)-2-methyl-1H-imidazole-4-carboxamide]
25 | 63 | Cc1nc(-c2cc(-c3cc(F)c(CO)c(S(C)(=O)=O)c3)ccc2-n2cc(C(F)(F)F)nc2C)c(-c2ccc(OC(F)F)cc2Cl)o1 [Example 397, (3′-(5-(2-chloro-4-(difluoromethoxy)phenyl)-2-methyloxazol-4-yl)-3-fluoro-4′-(2-methyl-4-(trifluoromethyl)-1H-imidazol-1-yl)-5-(methylsulfonyl)biphenyl-4-yl)methanol]
269 | 64 | Cc1nc(-c2cc(-c3cccc(S(C)(=O)=O)c3)ccc2-n2cc(C(F)(F)F)nc2C)c(-c2cc(F)cc(F)c2)o1 [Example 447]
48 | 116 | Cc1nc(-c2cc(-c3cc(F)c(CO)c(S(C)(=O)=O)c3)ccc2-n2cc(C(F)(F)F)nc2C)c(-c2ccc(OC(F)F)cc2)o1 [Example 496, (3′-(5-(4-(difluoromethoxy)phenyl)-2-methyloxazol-4-yl)-3-fluoro-4′-(2-methyl-4-(trifluoromethyl)-1H-imidazol-1-yl)-5-(methylsulfonyl)biphenyl-4-yl)methanol]

Continued, molecule first:

Compound | EC50 [nM] | Emax [%]
COc1ccc(-c2cnnn2-c2cc(-c3cccc(S(C)(=O)=O)c3)ccc2-n2cc(C(F)(F)F)nc2C)cc1OC(F)F [Example 42, 5-{3-[(difluoromethyl)oxy]-4-(methyloxy)phenyl}-1-{3′-(methylsulfonyl)-4-[2-methyl-4-(trifluoromethyl)-1H-imidazol-1-yl]biphenyl-3-yl}-1H-1,2,3-triazole] | 1060 | 43
CCS(=O)(=O)c1cccc(-c2ccc(-n3cc(C(F)(F)F)nc3C)c(-n3nncc3C(F)(F)c3ccc(Cl)cc3)c2)c1 [Example 142, 5-[(4-chlorophenyl)(difluoro)methyl]-1-{3′-(ethylsulfonyl)-4-[2-methyl-4-(trifluoromethyl)-1H-imidazol-1-yl]biphenyl-3-yl}-1H-1,2,3-triazole] | 205 | 63
Cc1nc(C(F)(F)F)cn1-c1ccc(-c2cccc(S(C)(=O)=O)c2)cc1-n1nncc1CC1CCC(C)CC1 (stereo not shown) [Example 127, 5-[(4-methylcyclohexyl)methyl]-1-{3′-(methylsulfonyl)-4-[2-methyl-4-(trifluoromethyl)-1H-imidazol-1-yl]biphenyl-3-yl}-1H-1,2,3-triazole] | 776 | 55
Cc1nc(C(F)(F)F)cn1-c1ccc(-c2cccc(S(C)(=O)=O)c2)cc1-n1nncc1Cc1cccc(OC(F)(F)F)c1 [Example 116, 1-{3′-(methylsulfonyl)-4-[2-methyl-4-(trifluoromethyl)-1H-imidazol-1-yl]biphenyl-3-yl}-5-({3-[(trifluoromethyl)oxy]phen-yl}methyl)-1H-1,2,3-triazole] | 982 | 59
Cc1nc(C(F)(F)F)cn1-c1ccc(-c2cccc(S(C)(=O)=O)c2)cc1-n1nncc1-c1ccc(N(C)C)cc1 [Example 22, N,N-dimethyl-4-(1-{3′-(methylsulfonyl)-4-[2-methyl-4-(trifluoromethyl)-1H-imidazol-1-yl]biphenyl-3-yl}-1H-1,2,3-triazol-5-yl)aniline] | 113 | 99
Cc1nc(Cl)cn1-c1ccc(-c2cccc(S(C)(=O)=O)c2)cc1-n1nncc1-c1ccc(OC(F)(F)F)cc1 [Example 149, 1-[4-(4-chloro-2-methyl-1H-imidazol-1-yl)-3′-(methylsulfonyl)biphenyl-3-yl]-5-{4-[(trifluoromethyl)oxy]phenyl}-1H-1,2,3-triazole] | 444 | 75
CS(=O)(=O)c1cccc(-c2ccc(-n3cc(C(F)(F)F)nc3C(F)F)c(-n3nncc3-c3ccc(Cl)cc3)c2)c1 [Example 225, 5-(4-chlorophenyl)-1-(4-(2-(difluoromethyl)-4-(trifluoromethyl)-1H-imidazol-1-yl)-3′-(methylsulfonyl)-[1,1′-biphenyl]-3-yl)-1H-1,2,3-triazole] | 1100 | 91
Cc1nc(C(F)(F)F)cn1-c1ccc(-c2cccc(S(C)(=O)=O)c2)cc1-n1nncc1-c1ccc(Cl)c(Cl)c1 [Example 75, 5-(3,4-dichlorophenyl)-1-{3′-(methylsulfonyl)-4-[2-methyl-4-(trifluoromethyl)-1H-imidazol-1-yl]biphenyl-3-yl}-1H-1,2,3-triazole] | 127 | 97
